Data published in US12077503B2, “Substituted cyclic amides and their use as herbicides” (FMC CORPORATION, priority 2015, dated 2024).

What was measured:
Format in all cases: in vivo
Kochia (Kochia scoparia) [1] = experiment: Test A preemergence; conditions: Bassia scoparia, pre-emergence, 240 h, 0 to 100 scale where 0 is no effect and 100 is complete control, read-out: Kochia plant response rating; for pest or weed control at 31 g/ha: 31 g ai/ha, Preemergence; for pest or weed control at 125 g/ha: 125 g ai/ha, preemergence, approx. 10 d
Summary of the method: (§1)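 Visual injury, scored on a 0–100 scale relative to untreated controls, was recorded about 10 d after application. Treatments were a preemergence soil spray over planted seeds or a postemergence spray on plants at the one- to two-leaf stage, 2 to 10 cm tall, all in loam soil–sand blend in the greenhouse.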

[2] = system: barnyardgrass (Echinochloa crus-galli); experiment: Test A preemergence; conditions: Echinochloa crus-galli, pre-emergence, 240 h, 0 to 100 scale where 0 is no effect and 100 is complete control, read-out: Barnyardgrass plant response rating; for pest or weed control at 31 g/ha: 31 g ai/ha, Preemergence; for pest or weed control at 125 g/ha: 125 g ai/ha, preemergence, approx. 10 d
Summary of the method: as §1

[3] = system: giant foxtail (Setaria faberii); experiment: Test A preemergence; conditions: Setaria faberi, pre-emergence, 240 h, 0 to 100 scale where 0 is no effect and 100 is complete control, read-out: Foxtail, Giant plant response rating; for pest or weed control at 31 g/ha: 31 g ai/ha, Preemergence; for pest or weed control at 125 g/ha: 125 g ai/ha, preemergence, approx. 10 d
Summary of the method: as §1

[4] = system: pigweed (Amaranthus retroflexus); experiment: Test A preemergence; conditions: Amaranthus retroflexus, pre-emergence, 240 h, 0 to 100 scale where 0 is no effect and 100 is complete control, read-out: Pigweed plant response rating; for pest or weed control at 31 g/ha: 31 g ai/ha, Preemergence; for pest or weed control at 125 g/ha: 125 g ai/ha, preemergence, approx. 10 d
[5] = system: ragweed (common ragweed, Ambrosia elatior); experiment: Test A preemergence; conditions: Ambrosia artemisiifolia, pre-emergence, 240 h, 0 to 100 scale where 0 is no effect and 100 is complete control, read-out: Ragweed plant response rating; for pest or weed control at 31 g/ha: 31 g ai/ha, Preemergence; for pest or weed control at 125 g/ha: 125 g ai/ha, preemergence, approx. 10 d
Summary of the method: as §1

[6] = system: ryegrass, Italian (Italian ryegrass, Lolium multiflorum); experiment: Test A preemergence; conditions: Lolium multiflorum, pre-emergence, 240 h, 0 to 100 scale where 0 is no effect and 100 is complete control, read-out: Ryegrass, Italian plant response rating; for pest or weed control at 31 g/ha: 31 g ai/ha, Preemergence; for pest or weed control at 125 g/ha: 125 g ai/ha, preemergence, approx. 10 d
Summary of the method: as §1

[7] = system: Galium (catchweed bedstraw, Galium aparine); experiment: Test A postemergence; conditions: Galium, post-emergence, 240 h; for pest or weed control at 125 g/ha: 125 g ai/ha, postemergence, visual injury on 0 to 100 scale (0 no effect, 100 complete control), approx. 10 d, read-out: Galium plant response rating; for pest or weed control at 31 g/ha: Postemergence, 31 g ai/ha, visual injury after approx. 10 d, 0 to 100 scale, 0 no effect, 100 complete control, read-out: Plant response rating, Galium
Summary of the method: as §1

Kochia (Kochia scoparia) [8] = experiment: Test A postemergence; conditions: Bassia scoparia, post-emergence, 240 h; for pest or weed control at 125 g/ha: 125 g ai/ha, postemergence, visual injury on 0 to 100 scale (0 no effect, 100 complete control), approx. 10 d, read-out: Kochia plant response rating; for pest or weed control at 31 g/ha: Postemergence, 31 g ai/ha, visual injury after approx. 10 d, 0 to 100 scale, 0 no effect, 100 complete control, read-out: Plant response rating, Kochia
Summary of the method: as §1

[9] = system: barnyardgrass (Echinochloa crus-galli); experiment: Test A postemergence; conditions: Echinochloa crus-galli, post-emergence, 240 h; for pest or weed control at 125 g/ha: 125 g ai/ha, postemergence, visual injury on 0 to 100 scale (0 no effect, 100 complete control), approx. 10 d, read-out: Barnyardgrass plant response rating; for pest or weed control at 31 g/ha: Postemergence, 31 g ai/ha, visual injury after approx. 10 d, 0 to 100 scale, 0 no effect, 100 complete control, read-out: Plant response rating, Barnyardgrass
Summary of the method: as §1

[10] = system: blackgrass (Alopecurus myosuroides); experiment: Test A postemergence; conditions: Alopecurus myosuroides, post-emergence, 240 h; for pest or weed control at 125 g/ha: 125 g ai/ha, postemergence, visual injury on 0 to 100 scale (0 no effect, 100 complete control), approx. 10 d, read-out: Blackgrass plant response rating; for pest or weed control at 31 g/ha: Postemergence, 31 g ai/ha, visual injury after approx. 10 d, 0 to 100 scale, 0 no effect, 100 complete control, read-out: Plant response rating, Blackgrass
Summary of the method: as §1

corn (Zea mays) = experiment: Test A postemergence; conditions: Zea mays, post-emergence, 240 h; for plant injury at 125 g/ha: 125 g ai/ha, postemergence, visual injury on 0 to 100 scale (0 no effect, 100 complete control), approx. 10 d, read-out: Corn plant response rating; for Corn plant response rating (crop injury, 0 = no effect, 100 = complete kill) at 31 g/ha: Postemergence, 31 g ai/ha, visual injury after approx. 10 d, 0 to 100 scale, 100 complete control
Summary of the method: as §1

[11] = system: giant foxtail (Setaria faberii); experiment: Test A postemergence; conditions: Setaria faberi, post-emergence, 240 h; for pest or weed control at 125 g/ha: 125 g ai/ha, postemergence, visual injury on 0 to 100 scale (0 no effect, 100 complete control), approx. 10 d, read-out: Foxtail, Giant plant response rating; for pest or weed control at 31 g/ha: Postemergence, 31 g ai/ha, visual injury after approx. 10 d, 0 to 100 scale, 0 no effect, 100 complete control, read-out: Plant response rating, Foxtail, Giant
Summary of the method: as §1

[12] = system: pigweed (Amaranthus retroflexus); experiment: Test A postemergence; conditions: Amaranthus retroflexus, post-emergence, 240 h; for pest or weed control at 125 g/ha: 125 g ai/ha, postemergence, visual injury on 0 to 100 scale (0 no effect, 100 complete control), approx. 10 d, read-out: Pigweed plant response rating; for pest or weed control at 31 g/ha: Postemergence, 31 g ai/ha, visual injury after approx. 10 d, 0 to 100 scale, 0 no effect, 100 complete control, read-out: Plant response rating, Pigweed
Summary of the method: as §1

[13] = system: ragweed (common ragweed, Ambrosia elatior); experiment: Test A postemergence; conditions: Ambrosia artemisiifolia, post-emergence, 240 h; for pest or weed control at 125 g/ha: 125 g ai/ha, postemergence, visual injury on 0 to 100 scale (0 no effect, 100 complete control), approx. 10 d, read-out: Ragweed plant response rating; for pest or weed control at 31 g/ha: Postemergence, 31 g ai/ha, visual injury after approx. 10 d, 0 to 100 scale, 0 no effect, 100 complete control, read-out: Plant response rating, Ragweed
Summary of the method: as §1

[14] = system: ryegrass, Italian (Italian ryegrass, Lolium multiflorum); experiment: Test A postemergence; conditions: Lolium multiflorum, post-emergence, 240 h; for pest or weed control at 125 g/ha: 125 g ai/ha, postemergence, visual injury on 0 to 100 scale (0 no effect, 100 complete control), approx. 10 d, read-out: Ryegrass, Italian plant response rating; for pest or weed control at 31 g/ha: Postemergence, 31 g ai/ha, visual injury after approx. 10 d, 0 to 100 scale, 0 no effect, 100 complete control, read-out: Plant response rating, Ryegrass, Italian
Summary of the method: as §1

[15] = system: wheat (Triticum aestivum); experiment: Test A postemergence; conditions: Triticum aestivum, post-emergence, 240 h; for plant injury at 125 g/ha: 125 g ai/ha, postemergence, visual injury on 0 to 100 scale (0 no effect, 100 complete control), approx. 10 d, read-out: Wheat plant response rating; for plant injury at 31 g/ha: Postemergence, 31 g ai/ha, visual injury after approx. 10 d, 0 to 100 scale, 0 no effect, 100 complete control, read-out: Plant response rating, Wheat
Summary of the method: as §1

[16] = system: barnyardgrass (Echinochloa crus-galli); experiment: Test B flooded paddy test; conditions: Echinochloa crus-galli, 250 g ai/ha, Flood; 0 to 100 scale where 0 is no effect and 100 is complete control; read-out: Barnyardgrass plant response rating
Summary of the method: (§2)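 Compound goes directly into floodwater once pots are flooded 3 cm above soil, targeting plants at two leaves; the water depth is then held for the test duration. Plants sit 13–15 d in a greenhouse and are rated visually, 100 denoting complete control.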

[17] = system: ducksalad (Heteranthera limosa); experiment: Test B flooded paddy test; conditions: Heteranthera limosa, 250 g ai/ha, Flood; 0 to 100 scale where 0 is no effect and 100 is complete control; read-out: Ducksalad plant response rating
Summary of the method: as §2

rice (Oryra sativa) = experiment: Test B flooded paddy test; conditions: Oryza sativa, 250 g ai/ha, Flood; 0 to 100 scale where 0 is no effect and 100 is complete control; read-out: Rice plant response rating
Summary of the method: as §2

[18] = system: sedge, umbrella (small-flower umbrella sedge, Cyperus difformis); experiment: Test B flooded paddy test; conditions: Cyperus difformis, 250 g ai/ha, Flood; 0 to 100 scale where 0 is no effect and 100 is complete control; read-out: Sedge, Umbrella plant response rating
Summary of the method: as §2

SMILES | pest or weed control at 31 g/ha (Kochia (Kochia scoparia) [1]) [%] | pest or weed control at 125 g/ha (Kochia (Kochia scoparia) [1]) [%] | pest or weed control at 31 g/ha [2] [%] | pest or weed control at 125 g/ha [2] [%] | pest or weed control at 31 g/ha [3] [%] | pest or weed control at 125 g/ha [3] [%] | pest or weed control at 31 g/ha [4] [%] | pest or weed control at 125 g/ha [4] [%] | pest or weed control at 31 g/ha [5] [%] | pest or weed control at 125 g/ha [5] [%] | pest or weed control at 31 g/ha [6] [%] | pest or weed control at 125 g/ha [6] [%] | pest or weed control at 125 g/ha [7] [%] | pest or weed control at 31 g/ha [7] [%] | pest or weed control at 125 g/ha (Kochia (Kochia scoparia) [8]) [%] | pest or weed control at 31 g/ha (Kochia (Kochia scoparia) [8]) [%] | pest or weed control at 125 g/ha [9] [%] | pest or weed control at 31 g/ha [9] [%] | pest or weed control at 125 g/ha [10] [%] | pest or weed control at 31 g/ha [10] [%] | other results
O=C(Nc1ccc(F)c(F)c1F)[C@H]1C(=O)N(O)CC[C@@H]1c1ccc(C(F)(F)F)cc1 [Compound 1108] | 0 | 0 | 0 | 0 | 0 | 0 | 0 | 0 | 0 | 0 | 0 | 0 | 0 | 0 | 0 | 0 | 0 | 0 | 0 | 0 | plant injury at 125 g/ha (corn (Zea mays)): 0%; Corn plant response rating (crop injury, 0 = no effect, 100 = complete kill) at 31 g/ha (corn (Zea mays)): 0%; pest or weed control at 125 g/ha [11]: 0%; pest or weed control at 31 g/ha [11]: 0%; pest or weed control at 125 g/ha [12]: 0%; pest or weed control at 31 g/ha [12]: 0%; pest or weed control at 125 g/ha [13]: 0%; pest or weed control at 31 g/ha [13]: 0%; pest or weed control at 125 g/ha [14]: 0%; pest or weed control at 31 g/ha [14]: 0%; plant injury at 125 g/ha [15]: 0%; plant injury at 31 g/ha [15]: 0%; pest or weed control at 250 g/ha [16]: 40%; pest or weed control at 250 g/ha [17]: 85%; pest or weed control at 250 g/ha (rice (Oryra sativa)): 20%; pest or weed control at 250 g/ha [18]: 75%
CN1C[C@H](c2ccc(C(F)(F)F)nc2)[C@@](C)(C(=O)Nc2cccc(F)c2F)C1=O [Compound 1109] | 0 | 70 | 100 | 100 | 100 | 100 | 70 | 90 | 0 | 50 | 60 | 80 | 50 | 30 | 70 | 20 | 100 | 90 | 40 | 20 | plant injury at 125 g/ha (corn (Zea mays)): 80%; Corn plant response rating (crop injury, 0 = no effect, 100 = complete kill) at 31 g/ha (corn (Zea mays)): 40%; pest or weed control at 125 g/ha [11]: 90%; pest or weed control at 31 g/ha [11]: 70%; pest or weed control at 125 g/ha [12]: 60%; pest or weed control at 31 g/ha [12]: 20%; pest or weed control at 125 g/ha [13]: 50%; pest or weed control at 31 g/ha [13]: 0%; pest or weed control at 125 g/ha [14]: 50%; pest or weed control at 31 g/ha [14]: 0%; plant injury at 125 g/ha [15]: 60%; plant injury at 31 g/ha [15]: 30%; pest or weed control at 250 g/ha [16]: 85%; pest or weed control at 250 g/ha [17]: 90%; pest or weed control at 250 g/ha (rice (Oryra sativa)): 50%; pest or weed control at 250 g/ha [18]: 0%
